Data reported in US12030879B2, “Sulfonyl acetamides as NLRP3 inhibitors” (Inflazome Limited, priority 2018, dated 2024).
Where a name gives a salt, the structure may show the parent alone.

Each compound was assayed against T1, NLRP3 (Homo sapiens, UniProt Q96P20) (assay: THP-1 cells pyroptosis assay). Settings: LPS 1 μg/ml, compound 3 hrs, nigericin 5 μM 1 hr, resazurin readout.
T1 construct: Seed THP-1 cells (25,000 cells/well) containing 1.0 μg/ml LPS in 40 μl of RPMI medium; host or cells: THP-1 cells
T1 sequence (Q96P20 whole entry): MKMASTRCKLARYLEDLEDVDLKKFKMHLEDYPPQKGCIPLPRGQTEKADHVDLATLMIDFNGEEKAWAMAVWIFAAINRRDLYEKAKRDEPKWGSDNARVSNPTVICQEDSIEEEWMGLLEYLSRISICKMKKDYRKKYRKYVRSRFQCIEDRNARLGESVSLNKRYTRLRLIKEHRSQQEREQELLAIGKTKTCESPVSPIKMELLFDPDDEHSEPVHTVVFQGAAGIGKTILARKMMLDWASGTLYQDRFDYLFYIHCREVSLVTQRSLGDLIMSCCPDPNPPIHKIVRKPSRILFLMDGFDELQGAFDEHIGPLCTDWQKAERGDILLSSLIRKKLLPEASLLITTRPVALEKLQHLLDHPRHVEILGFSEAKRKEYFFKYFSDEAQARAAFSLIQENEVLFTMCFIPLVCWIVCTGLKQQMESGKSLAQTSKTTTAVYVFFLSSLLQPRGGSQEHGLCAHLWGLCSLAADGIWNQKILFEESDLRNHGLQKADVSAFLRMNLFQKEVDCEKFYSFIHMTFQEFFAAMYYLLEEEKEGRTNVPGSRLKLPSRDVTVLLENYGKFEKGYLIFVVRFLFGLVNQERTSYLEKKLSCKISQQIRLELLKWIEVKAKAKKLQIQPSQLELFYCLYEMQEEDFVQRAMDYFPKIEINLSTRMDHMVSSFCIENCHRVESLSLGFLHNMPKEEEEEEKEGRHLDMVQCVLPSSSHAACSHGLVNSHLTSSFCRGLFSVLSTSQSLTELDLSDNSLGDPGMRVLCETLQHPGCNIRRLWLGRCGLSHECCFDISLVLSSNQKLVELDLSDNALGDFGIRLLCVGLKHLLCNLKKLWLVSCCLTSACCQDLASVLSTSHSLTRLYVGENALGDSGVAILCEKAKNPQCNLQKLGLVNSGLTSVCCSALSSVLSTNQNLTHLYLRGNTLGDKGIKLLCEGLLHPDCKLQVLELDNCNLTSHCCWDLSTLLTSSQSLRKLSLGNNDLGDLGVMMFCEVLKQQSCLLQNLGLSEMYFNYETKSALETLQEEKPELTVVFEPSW
Type: cell-based
Experimental: THP-1 cells (ATCC #TIB-202) were grown in RPMI containing L-glutamine (Gibco #11835) supplemented with 1 mM sodium pyruvate (Sigma #S8636) and penicillin (100 units/ml)/streptomycin (0.1 mg/ml) (Sigma #P4333) in 10% Fetal Bovine Serum (FBS) (Sigma #F0804). The cells were routinely passaged and grown to confluency (10^6 cells/ml). On the day of the experiment, THP-1 cells were harvested and resuspended into RPMI medium (without FBS). The cells were then counted and viability (>90%) checked by Trypan blue (Sigma #T8154). Appropriate dilutions were made to give a concentration of 625,000 cells/ml. To this diluted cell solution was added LPS (Sigma #L4524) to give a 1 μg/ml Final Assay Concentration (FAC). 40 μl of the final preparation was aliquoted into each well of a 96-well plate. The plate thus prepared was used for compound screening.
The following method step-by-step assay was followed for compound screening. • 1. Seed THP-1 cells (25,000 cells/well) containing 1.0 μg/ml LPS in 40 μl of RPMI medium (without FBS) in 96-well, black walled, clear bottom cell culture plates coated with poly-D-lysine (VWR #734-0317) • 2. Add 5 μl compound (8 points half-log dilution, with 10 μM top dose) or vehicle (DMSO 0.1% FAC) to the appropriate wells • 3. Incubate for 3 hrs at 37° C., 5% CO2 • 4. Add 5 μl nigericin (Sigma #N7143) (FAC 5 μM) to all wells • 5. Incubate for 1 hr at 37° C., 5% CO2 • 6. At the end of the incubation period, spin plates at 300×g for 3 mins and remove supernatant • 7. Then add 50 μl of resazurin (Sigma #R7017)(FAC 100 μM resazurin in RPMI medium without FBS) and incubate plates for a further 1-2 hrs at 37° C. and 5% CO2 • 8. Plates were read in an Envision reader at Ex 560 nm and Em 590 nm • 9. IC50 data is fitted to a non-linear regression equation (log inhibitor vs response-variable slope 4-parameters) 96-well Plate Map

COc1cc(-c2cc(F)cc(C(C)C)c2CC(=O)NS(=O)(=O)c2ccc(C#N)cc2C)ccn1 [Example 37, N-((4-Cyano-2-methylphenyl)sulfonyl)-2-(4-fluoro-2-isopropyl-6-(2-methoxypyridin-4-yl)phenyl)acetamide] and COC(=O)c1ccc(S(=O)(=O)NC(=O)Cc2c(-c3ccnc(OC)c3)cc(F)cc2C(C)C)c(C)c1 [Example 39, Methyl 4-(N-(2-(4-fluoro-2-isopropyl-6-(2-methoxypyridin-4-yl)phenyl)acetyl)sulfamoyl)-3-methylbenzoate] cannot be ordered by IC50: at most 5 µM for the first, at most 10 µM for the second.

COc1cc(-c2cc(F)cc(C(C)C)c2CC(=O)NS(=O)(=O)c2cccc(CO)c2)ccn1 [Example 38, 2-(4-Fluoro-2-isopropyl-6-(2-methoxypyridin-4-yl)phenyl)-N-((3-(hydroxymethyl)phenyl)sulfonyl)acetamide, potassium salt] and COc1cc(-c2cc(F)cc(C(C)C)c2CC(=O)NS(=O)(=O)c2cccc(C(C)(C)C#N)c2)ccn1 [Example 81, N-((3-(2-Cyanopropan-2-yl)phenyl)sulfonyl)-2-(4-fluoro-2-isopropyl-6-(2-methoxypyridin-4-yl)phenyl)acetamide] cannot be ordered by IC50: at most 1 µM for the first, at most 5 µM for the second.

COc1cc(-c2cc(F)cc(C(C)C)c2CC(=O)NS(=O)(=O)c2cc(C(C)(C)O)co2)ccn1 [Example 40, 2-(4-Fluoro-2-isopropyl-6-(2-methoxypyridin-4-yl)phenyl)-N-((4-(2-hydroxypropan-2-yl)furan-2-yl)sulfonyl)acetamide] and COc1cc(-c2cc(F)cc(C(C)C)c2CC(=O)NS(=O)(=O)c2ccc(C(C)(C)O)cc2)ccn1 [Example 80, 2-(4-Fluoro-2-isopropyl-6-(2-methoxypyridin-4-yl)phenyl)-N-((4-(2-hydroxypropan-2-yl)phenyl)sulfonyl)acetamide] cannot be ordered by IC50: at most 0.5 µM for the first, at most 5 µM for the second.

COc1cc(-c2cc(F)cc(C(C)C)c2CC(=O)NS(=O)(=O)C(C)c2ccccc2)ccn1 (stereo not shown) [Example 41, 2-(4-Fluoro-2-isopropyl-6-(2-methoxypyridin-4-yl)phenyl)-N-((1-phenylethyl)sulfonyl)acetamide] and COc1cc(-c2cc(F)cc(C(C)C)c2CC(=O)NS(=O)(=O)c2ccc(C(C)=O)cc2)ccn1 [Example 43, N-((4-Acetylphenyl)sulfonyl)-2-(4-fluoro-2-isopropyl-6-(2-methoxypyridin-4-yl)phenyl)acetamide] cannot be ordered by IC50: at most 10 µM for the first, at most 5 µM for the second.

COc1cc(-c2cc(F)cc(C(C)C)c2CC(=O)NS(=O)(=O)c2cnn(C)c2)ccn1 [Example 42, 2-(4-Fluoro-2-isopropyl-6-(2-methoxypyridin-4-yl)phenyl)-N-((1-methyl-1H-pyrazol-4-yl)sulfonyl)acetamide] and COc1cc(-c2cc(F)cc(C(C)C)c2CC(=O)NS(=O)(=O)c2cc(CN(C)C)n(C)n2)ccn1 [Example 62, N-((5-((Dimethylamino)methyl)-1-methyl-1H-pyrazol-3-yl)sulfonyl)-2-(4-fluoro-2-isopropyl-6-(2-methoxypyridin-4-yl)phenyl) acetamide] cannot be ordered by IC50: at most 10 µM for the first, at most 5 µM for the second.

COc1cc(-c2ccc3c(c2CC(=O)NS(=O)(=O)N(C)C2CCN(C)C2)CCC3)ccn1 (stereo not shown) [Example 55, 2-(5-(2-Methoxypyridin-4-yl)-2,3-dihydro-H-inden-4-yl)-N—(N-methyl-N-(1-methylpyrrolidin-3-yl)sulfamoyl)acetamide, potassium salt] and COc1cc(-c2cc(F)cc(C(C)C)c2CC(=O)NS(=O)(=O)N(C)C2CCN(C)C2)ccn1 (stereo not shown) [Example 76, 2-(4-Fluoro-2-isopropyl-6-(2-methoxypyridin-4-yl)phenyl)-N—(N-methyl-N-(1-methylpyrrolidin-3-yl)sulfamoyl)acetamide] cannot be ordered by IC50: at most 5 µM for the first, at most 5 µM for the second.

CCN(CC)CCCS(=O)(=O)NC(=O)Cc1c(-c2ccnc(OC)c2)ccc2c1CCC2 [Example 56, N-((3-(Diethylamino)propyl)sulfonyl)-2-(5-(2-methoxypyridin-4-yl)-2,3-dihydro-1H-inden-4-yl)acetamide] and CCN(CC)CCCS(=O)(=O)NC(=O)Cc1c(-c2ccnc(OC)c2)cc(F)cc1C(C)C [Example 57, N-((3-(Diethylamino)propyl)sulfonyl)-2-(4-fluoro-2-isopropyl-6-(2-methoxypyridin-4-yl)phenyl)acetamide, potassium salt] cannot be ordered by IC50: at most 10 µM for the first, at most 5 µM for the second.

COc1cc(-c2cc(F)cc(C(C)C)c2CC(=O)NS(=O)(=O)c2cc(C(=O)N(C)C)n(C)n2)ccn1 [Example 58, 3-(N-(2-(4-Fluoro-2-isopropyl-6-(2-methoxypyridin-4-yl)phenyl)acetyl)sulfamoyl)-N,N,1-trimethyl-1H-pyrazole-5-carboxamide] and CC(C)c1cc(F)cc(-c2ccncc2)c1CC(=O)NS(=O)(=O)c1cc(C(=O)N(C)C)n(C)n1 [Example 60, 3-(N-(2-(4-Fluoro-2-isopropyl-6-(pyridin-4-yl)phenyl)acetyl)sulfamoyl)-N,N,1-trimethyl-1H-pyrazole-5-carboxamide] cannot be ordered by IC50: at most 1 µM for the first, at most 5 µM for the second.

CC(C)c1cc(F)cc(-c2cccnc2)c1CC(=O)NS(=O)(=O)c1cc(C(=O)N(C)C)n(C)n1 [Example 59, 3-(N-(2-(4-Fluoro-2-isopropyl-6-(pyridin-3-yl)phenyl)acetyl)sulfamoyl)-N,N,1-trimethyl-1H-pyrazole-5-carboxamide] and CC(C)c1cc(F)cc(-c2ccncc2)c1CC(=O)NS(=O)(=O)c1cc(CN(C)C)n(C)n1 [Example 73, N-((5-((Dimethylamino)methyl)-1-methyl-H-pyrazol-3-yl)sulfonyl)-2-(4-fluoro-2-isopropyl-6-(pyridin-4-yl)phenyl)acetamide] cannot be ordered by IC50: at most 5 µM for the first, at most 5 µM for the second.

CC(C)c1cc(F)cc(-c2ccncc2)c1CC(=O)NS(=O)(=O)c1ccn(C(C)(C)CN(C)C)n1 [Example 61, N-((1-(1-(Dimethylamino)-2-methylpropan-2-yl)-1H-pyrazol-3-yl)sulfonyl)-2-(4-fluoro-2-isopropyl-6-(pyridin-4-yl)phenyl)acetamide] and Cc1cc(C(C)(C)O)ccc1S(=O)(=O)NC(=O)Cc1c(-c2cccnc2)cc(F)cc1C(C)C [Example 82, 2-(4-Fluoro-2-isopropyl-6-(pyridin-3-yl)phenyl)-N-((4-(2-hydroxypropan-2-yl)-2-methylphenyl)sulfonyl)acetamide] cannot be ordered by IC50: at most 5 µM for the first, at most 5 µM for the second.

COc1cc(-c2ccc3c(c2CC(=O)NS(=O)(=O)c2cc(C(=O)N(C)C)n(C)n2)CCC3)ccn1 [Example 64, 3-(N-(2-(5-(2-Methoxypyridin-4-yl)-2,3-dihydro-1H-inden-4-yl)acetyl)sulfamoyl)-N,N,1-trimethyl-1H-pyrazole-5-carboxamide] and CN(C)C(=O)c1cc(S(=O)(=O)NC(=O)Cc2c(-c3ccnc(C#N)c3)ccc3c2CCC3)nn1C [Example 65, 3-(N-(2-(5-(2-Cyanopyridin-4-yl)-2,3-dihydro-1H-inden-4-yl)acetyl)sulfamoyl)-N,N,1-trimethyl-1H-pyrazole-5-carboxamide] cannot be ordered by IC50: at most 10 µM for the first, at most 5 µM for the second.

COc1cc(-c2cc(F)cc(C(C)C)c2CC(=O)NS(=O)(=O)C[C@]23CCC(CC2=O)C3(C)C)ccn1 [Example 75] and COc1cc(-c2cc(F)cc(C(C)C)c2CC(=O)NS(=O)(=O)C[C@@]23CC[C@@H](C[C@H]2O)C3(C)C)ccn1 [Example 77, 2-(4-Fluoro-2-isopropyl-6-(2-methoxypyridin-4-yl)phenyl)-N-((((1R,2R,4S)-2-hydroxy-7,7-dimethylbicyclo[2.2.1]heptan-1-yl)methyl)sulfonyl)acetamide] cannot be ordered by IC50: at most 10 µM for the first, at most 5 µM for the second.

COc1cc(-c2cc(F)cc(C(C)C)c2CC(=O)NS(=O)(=O)CCCC(C)(C)O)ccn1 [Example 78, 2-(4-Fluoro-2-isopropyl-6-(2-methoxypyridin-4-yl)phenyl)-N-((4-hydroxy-4-methylpentyl)sulfonyl)acetamide] and COc1cc(-c2cc(F)cc(C(C)C)c2CC(=O)NS(=O)(=O)c2ccc(F)c(C(C)(C)O)c2)ccn1 [Example 79, 2-(4-Fluoro-2-isopropyl-6-(2-methoxypyridin-4-yl)phenyl)-N-((4-fluoro-3-(2-hydroxypropan-2-yl)phenyl)sulfonyl)acetamide] cannot be ordered by IC50: at most 10 µM for the first, at most 1 µM for the second.

COc1cc(-c2cc(F)cc(C(C)C)c2CC(=O)NS(=O)(=O)c2ccc(C(C)(C)N)c(F)c2)ccn1 [Example 83, N-((4-(2-Aminopropan-2-yl)-3-fluorophenyl)sulfonyl)-2-(4-fluoro-2-isopropyl-6-(2-methoxypyridin-4-yl)phenyl)acetamide] and COc1cc(-c2cc(F)cc(C(C)C)c2CC(=O)NS(=O)(=O)c2ccc(C(C)(C)O)c(F)c2)ccn1 [Example 84, 2-(4-Fluoro-2-isopropyl-6-(2-methoxypyridin-4-yl)phenyl)-N-((3-fluoro-4-(2-hydroxypropan-2-yl)phenyl)sulfonyl)acetamide] cannot be ordered by IC50: at most 5 µM for the first, at most 1 µM for the second.
